Test system: patients with depressive disorder
Assay: Open-label rosiglitazone added to treatment as usual for 12 weeks in patients with depressive disorder and surrogate IR blood markers
Type: in vivo, human
Protocol: Open-label PPAR agonist, rosiglitazone, titrated to a dose of 8 mg/day, was administered for 12 weeks to patients with depressive disorder receiving treatment as usual (TAU). Subjects were evaluated and surrogate IR blood markers were chosen based on fasting plasma glucose >100 mg/dL or triglyceride (TG) to high density lipoprotein (HDL) ratio of about 3.0 or greater.
Psychiatric Response to Treatment. […] Cohen's d for pre- to post-treatment HDRS-21 was 1.17, with an effect size of r=0.504. For CGI-S scores, Cohen's d and effect size r for CGI-S were 1.27 and 0.54, respectively. […] Even considering the very small sample size, the trajectory of decline in HDRS and CGI was linear.

[1] = 8 mg/day, 12 weeks, 8 completers

CN(CCOc1ccc(CC2SC(=O)NC2=O)cc1)c1ccccn1 (stereo not drawn) [rosiglitazone, 5-[4-[2-(N-methyl-N-(2-pyridyl)amino)ethoxy]benzyl]thiazolidine-2,4-dione]
CGI-S post-treatment mean (8 mg/day, 12 weeks, add-on to TAU, 8 completers, baseline mean 4.0, p=0.043): 2.9 | HDRS-21 post-treatment mean (8 mg/day, 12 weeks, add-on to TAU, 8 completers, baseline mean 19.9, repeated measures ANOVA p=0.019): 12.1 | Cohen's d for CGI-S [1]: 1.27 | Cohen's d for pre- to post-treatment HDRS-21 [1]: 1.17 | effect size r for CGI-S [1]: 0.54 | effect size r for pre- to post-treatment HDRS-21 [1]: 0.504 | patients showing ≧50% HDRS-21 score reduction [1]: 4 of the 8 | mean reduction in HDRS-21 scores (8 mg/day, 12 weeks, 8 completers, versus baseline): 39.3% | depression severity by Hamilton Depression Rating Scale and clinical assessment (CGI) scores (8 patients who completed the 12 week study, moderate effect sizes): significant declines

From patent US20100152249A1, “COMPOSITONS AND METHOD FOR TREATMENT OF MOOD AND COGNITIVE IMPAIRMENTS” (BOARD OF TRUSTEES OF THE LELAND STANFORD JUNIOR UNIVERSITY, priority 2008, published 2010)
